Test system: C57/BL male mice
Assay: Septic shock assay (LPS plus galactosamine challenge)
Format: in vivo, mouse
Details: 60, 20, 6 and 2 mg/kg daily IP for three days, first dose 30 minutes after challenge; dose of the result not stated
Method: Groups of 10 C57/BL male mice weighing 18 to 20 g were administered a test compound, 1-carboxynaphthalene-1-carboxamide at the doses of 60, 20, 6 and 2 mg/kg, daily, by intraperitoneal (IP) injection for three consecutive days. Each animal was first challenged with lipopolysaccharide (LPS, from E. Coli, LD100 of 20 mg/animal IV) plus galactosamine (20 mg/animal IV). The first dose of test compound in a suitable vehicle was given 30 minutes after challenge, and the second and third doses were given 24 hours later on day 2 and day 3 respectively, with only the surviving animals receiving the second or third dose of the test compound. Mortality was recorded every 12 hours after challenge for the three-day testing period. 1-Carboxy-naphthalene-1-carboxamide provided a protection against mortality from septic shock of about 40%.

Question: How did the “protection against mortality from septic shock” value turn out when `NC(=O)c1cccc2cccc(C(=O)O)c12` [1-Carboxy-naphthalene-1-carboxamide, 8-carboxynaphthalene-1-carboxamide] was run?
Answer: about 40%

— patent publication US6395749B1, “Carboxamide compounds, methods, and compositions for inhibiting PARP activity” (Guilford Pharmaceuticals Inc., priority 1998, dated 2002)
